Experimental data published in PMC6201879, “N-substituted phenylbenzamides of the niclosamide chemotype attenuate obesity related changes in high fat diet fed mice” (PLoS ONE, 2018).
Read-outs that look alike come from different tables or passages of the source.

Tests used:
PH5CH8 liver cells = experiment: High-throughput hepatic de novo lipogenesis (DNL) assay, high content imaging of steatotic phenotype; assay type: cell-based, human; details: for IC50: Homo sapiens
[1] = system: HEK293 cells stably transduced with the human OCT3 transporter; experiment: Cellular oxygen consumption rate (OCR), MitoXpress Xtra; assay type: cell-based; details: HEK293 cells expressing human OCT3; compared to DMSO control; 2 hours
Method in brief: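 HEK293 cells stably expressing human OCT3, treated with four compound concentrations; oxygen consumption followed by MitoXpress Xtra TR-F lifetime (340/650 nm) every 2 min for 2 h. Lifetime slope from the linear portion taken as OCR; FCCP (1 μM) as stimulated control, differences versus DMSO by t-test.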

[2] = Metabolic stability in human liver microsomes; assay type: in vitro ADME
Description: (§1) Three experiments were performed with 1) 0.5mg/ml microsomes and 1mM NADPH, 2) 0.5mg/ml microsomes without NADPH and 3) 0.5mg/ml heat inactivated microsomes without NADPH in 100mM phosphate buffer, containing 5mM magnesium chloride. […] At the indicated time points, 50μl samples were removed and stopped by addition of 4 volumes of cold acetonitrile with internal standards, 100nM alprazolam, 200nM labetalol and 2μM ketoprofen. The samples were centrifuged at 3,220 g for 40 minutes and aliquots of 100μl were subsequently diluted with 100μl of ultra-pure water and analyzed by LC/MS/MS using a (Shimadzu corporation) LC system coupled to a Shimadzu Triple Quad 5500 mass spectrometer with an ESI interface. The LC system used a Waters XSelect HSS T3 C18, 2.5μm, 2.1 x 50 mm column eluted with one of two methods using mobile phases A (water, 0.1% formic acid) and B (acetonitrile, 0.1% formic acid). […] The Shimadzu Triple Quad 5500 MS was operated with the following parameters: Ion source: Turbo spray; Ionization mode: ESI; Scan type: MRM; Collision gas: 10 L/min; Curtain gas: 30 L/min; Nebulize gas: 50 L/min; Auxiliary gas: 50 L/min; Temperature: 500°C; Ionspray voltage: +5500 V (positive MRM). All experiments were performed in duplicate. Data were analyzed using Microsoft excel, and peak areas were determined from extracted ion chromatograms.

[3] = Metabolic stability in mouse liver microsomes; assay type: in vitro ADME; details: 60 min
Description: as §1

[4] = system: Salmonella typhimurium TA100; details: for Mean Revertant Colony Counts TA-100 SP9+: with S9; for Mean Revertant Colony Counts TA-100 S9-: without S9
[5] = system: Salmonella typhimurium TA98; experiment: Ames assay, strain TA98; details: for Mean Revertant Colony Counts TA98 SP9+: with S9; for Mean Revertant Colony Counts TA98 S9-: without S9
[6] = 0.5mg/ml microsomes and 1mM NADPH
[7] = 0.5mg/ml microsomes without NADPH
[8] = heat inactivated microsomes without NADPH

## CC(C)(C)c1ccc(O)c(C(=O)Nc2cc(C(=O)O)ccc2Cl)c1 [Compound 600494, 3-{[2-Hydroxy-5-(tert-butyl)benzene]amido}-4chloro-benzoic acid]
PH5CH8 liver cells; PH5CH8 liver cells, 10-point dose response between 1μM and 1.9nM, read-out: IC50 (uM), inhibition of steatotic phenotype in DNL assay
  IC50: 0.004 µM
PH5CH8 liver cells; S1 Table. SAR for N-Substituted Phenylbenzamides, read-out: IC50
  IC50: 0.0039 µM
PH5CH8 liver cells; S1 Table. SAR for N-Substituted Phenylbenzamides
  Active/Inactive: Active
[1]
  change in respiration / oxygen consumption rate (OCR): no change in respiration
[2]; [6]
  Remaining Percentage of 60 min (%), Human, Tested Sample: 99.4%
[2]; [7]
  Remaining Percentage of 60 min (%), Human, Negative Control: 92.8%
[2]; [8]
  Remaining Percentage of 60 min (%), Human, Heat-inactivated Control: 114.2%
[3]; [6]
  Remaining Percentage of 60 min (%), Mouse, Tested Sample: 109.6%
[3]; [7]
  Remaining Percentage of 60 min (%), Mouse, Negative Control: 68.9%
[3]; [8]
  Remaining Percentage of 60 min (%), Mouse, Heat-inactivated Control: 98.5%
[4]; 1.5 ug/Well
  Mean Revertant Colony Counts TA-100 SP9+: 20.7
  Mean Revertant Colony Counts TA-100 S9-: 30.0
[4]; 4 ug/Well
  Mean Revertant Colony Counts TA-100 SP9+: 17.3
  Mean Revertant Colony Counts TA-100 S9-: 27.0
[4]; 10 ug/Well
  Mean Revertant Colony Counts TA-100 SP9+: 18.0
  Mean Revertant Colony Counts TA-100 S9-: 25.0
[4]; 25 ug/Well
  Mean Revertant Colony Counts TA-100 SP9+: 22.0
  Mean Revertant Colony Counts TA-100 S9-: 24.0
[4]; 64 ug/Well
  Mean Revertant Colony Counts TA-100 SP9+: 16.3
  Mean Revertant Colony Counts TA-100 S9-: 33.0
[4]; 160 ug/Well
  Mean Revertant Colony Counts TA-100 SP9+: 21.0
  Mean Revertant Colony Counts TA-100 S9-: 25.7
[4]; 400 ug/Well
  Mean Revertant Colony Counts TA-100 SP9+: 21.3
  Mean Revertant Colony Counts TA-100 S9-: 22.3
[4]; 1000 ug/Well
  Mean Revertant Colony Counts TA-100 SP9+: 20.3
  Mean Revertant Colony Counts TA-100 S9-: 17.7
[4]; any concentration tested, vs negative control
  fold increase in the mean number of revertant colonies, TA100: < 2 fold
[5]; 1.5 ug/Well
  Mean Revertant Colony Counts TA98 SP9+: 8.7
  Mean Revertant Colony Counts TA98 S9-: 7.3
[5]; 4 ug/Well
  Mean Revertant Colony Counts TA98 SP9+: 9.3
  Mean Revertant Colony Counts TA98 S9-: 7.7
[5]; 10 ug/Well
  Mean Revertant Colony Counts TA98 SP9+: 7.7
  Mean Revertant Colony Counts TA98 S9-: 7.3
[5]; 25 ug/Well
  Mean Revertant Colony Counts TA98 SP9+: 12.0
  Mean Revertant Colony Counts TA98 S9-: 6.7
[5]; 64 ug/Well
  Mean Revertant Colony Counts TA98 SP9+: 8.0
  Mean Revertant Colony Counts TA98 S9-: 6.0
[5]; 160 ug/Well
  Mean Revertant Colony Counts TA98 SP9+: 15.7
  Mean Revertant Colony Counts TA98 S9-: 11.7
[5]; 400 ug/Well
  Mean Revertant Colony Counts TA98 SP9+: 10.3
  Mean Revertant Colony Counts TA98 S9-: 14.0
[5]; 400 μg/well in the absence of S9 mix
  fold increase in revertant colonies, TA98: ≥ 2 fold
[5]; 1000 ug/Well
  Mean Revertant Colony Counts TA98 SP9+: 11.3
  Mean Revertant Colony Counts TA98 S9-: 10.7
